In PubChem BioAssay (NCI):
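GI50 marks 50% less growth.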

Test system: HL-60(TB) leukemia
Assay: NCI tumour cell line growth inhibition, 384-well format

SMILES: CNNCc1ccc(C(=O)NC(C)C)cc1
- GI50: 12.2 µM
